Results reported in ChEMBL document CHEMBL4052729, “Discovery of novel dengue virus entry inhibitors via a structure-based approach” (Bioorg Med Chem Lett, 2017).
≈ marks a conversion by molar mass, not a printed value.

Tests used:
[1] = Selectivity index, ratio of CC50 for golden hamster BHK21 cells to EC50 for DENV2
[2] = Cytotoxicity against human A549 cells by MTT assay; format: cell-based
[3] = Selectivity index, ratio of CC50 for human A549 cells to EC50 for DENV2
[4] = Cytotoxicity against golden hamster BHK21 cells by MTT assay; format: cell-based, Mesocricetus auratus, BHK-21
dengue virus type 2 = test: Antiviral activity against DENV2 infected in human A549 or golden hamster BHK21 cells preincubated with viral inoculum for 30 mins followed by viral inoculum removal after 1 hr and subsequently incubated with fresh medium containing compound and measured 8 hrs post-infection by luciferase reporter gene assay; format: functional, cell-based
[5] = test system: Bovine viral diarrhea virus 1; test: Antiviral activity against BVDV; format: functional; conditions: Bovine viral diarrhea virus isolates and strains
[6] = Aqueous solubility of the compound in buffer at pH 6.4 after 48 hrs UV spectroscopy based shake flask method; format: physicochemical
[7] = Aqueous solubility of the compound in buffer at pH 7.4 after 48 hrs UV spectroscopy based shake flask method; format: physicochemical
[8] = Stability of the compound in pH 7.4 PBS buffer after 24 to 48 hrs by chromatographic method; format: physicochemical
[9] = Aqueous solubility of the compound in buffer at pH 2.0 after 48 hrs UV spectroscopy based shake flask method; format: physicochemical

EC50 (dengue virus type 2) | EC50 [5] | solubility thermodynamic at 48 h [6] | solubility thermodynamic at 48 h [7] | Stability [8] | solubility thermodynamic at 48 h [9] | Structure (SMILES) | Ratio CC50/EC50 [1] | CC50 [2] | Ratio CC50/EC50 [3] | CC50 [4]
22.7 µM | > 50 µM | – | – | – | – | O=C(Nc1ccccc1OCc1ccc(Cl)c(Cl)c1)c1ccco1 | >5 | > 100 µM | >5 | > 100 µM
28.7 µM | > 50 µM | – | – | – | – | O=C(NC(=S)N1CCc2ccccc21)c1ccc(C#Cc2ccccc2)nc1 | >4 | > 100 µM | >4 | > 100 µM
5.1 µM | > 50 µM | 13.1 µg/mL (≈ 28.6 µM) | 1.2 µg/mL (≈ 2.62 µM) | > 48 h | 8.2 µg/mL (≈ 17.9 µM) | O=C(CSCC(=O)Nc1ccc(OC(F)(F)F)cc1)NNC(=S)Nc1ccccc1 | >20 | > 100 µM | >20 | > 100 µM
3.1 µM | > 50 µM | 10.1 µg/mL (≈ 22 µM) | 2.9 µg/mL (≈ 6.31 µM) | > 48 h | 12.7 µg/mL (≈ 27.6 µM) | O=C(Nc1ccc(Oc2ncnc3cc(Cl)ccc23)nc1)c1ccc(-c2ccccn2)s1 | >32 | > 100 µM | >32 | > 100 µM
– | – | 68.3 µg/mL (≈ 216 µM) | – | – | – | O=C1Nc2ccc(Cl)cc2[C@@](C#CC2CC2)(C(F)(F)F)O1 [EFAVIRENZ] | – | – | – | –
– | – | 7.3 µg/mL (≈ 22 µM) | – | – | – | CN1C(C(=O)Nc2ccccn2)=C(O)c2ccccc2S1(=O)=O [PIROXICAM] | – | – | – | –
